In paper PMC4050370 (Nature structural & molecular biology, 2014):

Target: LeuT (leucine transporter) (Aquifex aeolicus, UniProt O67854)
Experiment: [3H]-Ala uptake in proteoliposomes
Type: biochemical
Conditions: Na+-dependent; 50 mM NaCl, 50 mM Tris-Mes pH 8.5, 22 °C; labelled compound

SMILES: C[C@H](N)C(=O)O [alanine]
- [3H]-Ala uptake in proteoliposomes: we measured Na^+-dependent alanine uptake in proteoliposomes for a large subset of mutants
